The results in this text go back to US20250382273A1 (INSTITUT NATIONAL DE LA SANTE ET DE LA RECHERCHE MEDICALE, priority 2022, published 2025).

The structures appear in SMILES notation. A value given as a limit tells only on which side of the number the result lay.

The first assay deals with M. tuberculosis H37Rv_DdnL49P_gfp. In kind it is cell-based, Mycobacterium tuberculosis. Particulars: in combination with pretomanid, unit inferred; read-out: average EC50 H37Rv_DdnL49P_gfp.
Regarding `CC(C)(C)C#Cc1ccc2nc(NC(=O)[C@@H]3C4C=CC(C4)[C@@H]3C(=O)O)sc2c1` (some centres unmarked) [Example 78, 3-[[6-(3,3-dimethylbut-1-ynyl)-1,3-benzothiazol-2-yl]carbamoyl]bicyclo [2.2.1]hept-5-ene-2-carboxylic acid], the EC50 – broadly, the concentration giving half of the maximal effect – is 0.22 µM.

Still in this assay, the particulars now being: read-out: EC50 H37Rv_DdnL49P_gfp.
As to `CC(C)(C)C#Cc1ccc2nc(NC(=O)[C@@H]3C4C=CC(C4)[C@@H]3C(=O)O)sc2c1` (some centres unmarked) [Example 78, 3-[[6-(3,3-dimethylbut-1-ynyl)-1,3-benzothiazol-2-yl]carbamoyl]bicyclo [2.2.1]hept-5-ene-2-carboxylic acid], the EC50 is under 1 µM. The same measure, in the same setting: the result for `O=C(Nc1nc2ccc(C#CC3CC3)cc2s1)[C@@H]1C2C=CC(C2)[C@@H]1C(=O)O` (some centres unmarked) [Example 79, 3-[[6-(2-cyclopropylethynyl)-1,3-benzothiazol-2-yl]carbamoyl]bicyclo[2.2.1]hept-5-ene-2-carboxylic acid] reads under 1 µM; that for `O=C(Nc1nc2ccc(-c3cncnc3)cc2s1)[C@@H]1C2C=CC(C2)[C@@H]1C(=O)O` (some centres unmarked) [Example 80, 3-[(6-pyrimidin-5-yl-1,3-benzothiazol-2-yl)carbamoyl]bicyclo[2.2.1]hept-5-ene-2-carboxylic acid], 10 to 20 µM; that for `O=C(Nc1nc2ccc(-c3ccc4ncccc4c3)cc2s1)[C@@H]1C2C=CC(C2)[C@@H]1C(=O)O` (some centres unmarked) [Example 81, 3-[[6-(6-quinolyl)-1,3-benzothiazol-2-yl]carbamoyl]bicyclo[2.2.1]hept-5-ene-2-carboxylic acid], 1 to 5 µM.

As for `Cc1ccnc(Nc2ccc3nc(NC(=O)[C@@H]4C5C=CC(C5)[C@@H]4C(=O)O)sc3c2)c1` (some centres unmarked) [Example 84, 3-[[6-[(4-methyl-2-pyridyl)amino]-1,3-benzothiazol-2-yl]carbamoyl]bicyclo[2.2.1]hept-5-ene-2-carboxylic acid], the EC50 lay within 1 to 5 µM. The same measure, in the same setting: the value for `O=C(Nc1nc2ccc(Nc3cc(F)ccn3)cc2s1)[C@@H]1C2C=CC(C2)[C@@H]1C(=O)O` (some centres unmarked) [Example 85, 3-[[6-[(4-fluoro-2-pyridyl)amino]-1,3-benzothiazol-2-yl]carbamoyl]bicyclo[2.2.1]hept-5-ene-2-carboxylic acid] was under 1 µM. Take `O=C(Nc1nc2ccc(Nc3ccc(F)cn3)cc2s1)[C@@H]1C2C=CC(C2)[C@@H]1C(=O)O` (some centres unmarked) [Example 86, 3-[[6-[(5-fluoro-2-pyridyl)amino]-1,3-benzothiazol-2-yl]carbamoyl]bicyclo[2.2.1]hept-5-ene-2-carboxylic acid]: the EC50 is under 1 µM. Same read-out and setting: the result for `O=C1[C@@H]2C3C=CC(C3)[C@@H]2C(=O)N1c1nc2ccc(Nc3ccc(F)cn3)cc2s1` [Example 87, 4-[6-[(5-fluoro-2-pyridyl)amino]-1,3-benzothiazol-2-yl]-4-azatricyclo[5.2.1.02,6]dec-8-ene-3,5-dione] reads under 1 µM; that for `O=C(Nc1nc2ccc(Nc3cccc(F)n3)cc2s1)[C@@H]1C2C=CC(C2)[C@@H]1C(=O)O` (some centres unmarked) [Example 88, 3-[[6-[(6-fluoro-2-pyridyl)amino]-1,3-benzothiazol-2-yl]carbamoyl]bicyclo[2.2.1]hept-5-ene-2-carboxylic acid], under 1 µM. On the same count and under the same terms, the value for `O=C1[C@@H]2C3C=CC(C3)[C@@H]2C(=O)N1c1nc2ccc(Nc3cccc(F)n3)cc2s1` [Example 89, 4-[6-[(6-fluoro-2-pyridyl)amino]-1,3-benzothiazol-2-yl]-4-azatricyclo[5.2.1.02,6]dec-8-ene-3,5-dione] was 1 to 5 µM. For the compound `O=C1[C@@H]2C3C=CC(C3)[C@@H]2C(=O)N1c1nc2ccc(Nc3ccnc(C(F)(F)F)c3)cc2s1` [Example 90, 4-[6-[[2-(trifluoromethyl)-4-pyridyl]amino]-1,3-benzothiazol-2-yl]-4-azatricyclo[5.2.1.02,6]dec-8-ene-3,5-dione], the EC50 is under 1 µM.

`O=C(Nc1nc2ccc(Nc3cncc(C(F)(F)F)c3)cc2s1)[C@@H]1C2C=CC(C2)[C@@H]1C(=O)O` (some centres unmarked) [Example 91, 3-[[6-[[5-(trifluoromethyl)-3-pyridyl]amino]-1,3-benzothiazol-2-yl]carbamoyl]bicyclo[2.2.1]hept-5-ene-2-carboxylic acid]: the EC50 lay in the range of 5 to 10 µM. On to `COc1cc(Nc2ccc3nc(N4C(=O)[C@@H]5C6C=CC(C6)[C@@H]5C4=O)sc3c2)ccn1` [Example 92, 4-[6-[(2-methoxy-4-pyridyl)amino]-1,3-benzothiazol-2-yl]-4-azatricyclo[5.2.1.02,6]dec-8-ene-3,5-dione], for which the EC50 lay in the range of 1 to 5 µM.

On to `O=C(Nc1nc2ccc(Nc3ccc(OC(F)(F)F)cn3)cc2s1)[C@@H]1C2C=CC(C2)[C@@H]1C(=O)O` (some centres unmarked) [Example 93, 3-[[6-[[5-(trifluoromethoxy)-2-pyridyl]amino]-1,3-benzothiazol-2-yl]carbamoyl]bicyclo[2.2.1]hept-5-ene-2-carboxylic acid], for which the EC50 was under 1 µM. As for `O=C1[C@@H]2C3C=CC(C3)[C@@H]2C(=O)N1c1nc2ccc(Nc3ccc(C(F)(F)F)cn3)cc2s1` [Example 95], the EC50 is under 1 µM.

Consider `O=C(Nc1nc2ccc(Nc3ccc(C(F)(F)F)cn3)cc2s1)[C@@H]1C2C=CC(C2)[C@@H]1C(=O)O` (some centres unmarked) [Example 96, 3-[[6-[[5-(trifluoromethyl)-2-pyridyl]amino]-1,3-benzothiazol-2-yl]carbamoyl]bicyclo[2.2.1]hept-5-ene-2-carboxylic acid], for which the EC50 was under 1 µM. On the same count and under the same terms, the value for `O=C1[C@@H]2C3C=CC(C3)[C@@H]2C(=O)N1c1nc2ccc(Nc3cccc(C(F)(F)F)n3)cc2s1` [Example 97, 4-[6-[[6-(trifluoromethyl)-2-pyridyl]amino]-1,3-benzothiazol-2-yl]-4-azatricyclo[5.2.1.02,6]dec-8-ene-3,5-dione] was under 1 µM; that for `O=C(Nc1nc2ccc(Nc3ccnc(F)c3)cc2s1)[C@@H]1C2C=CC(C2)[C@@H]1C(=O)O` (some centres unmarked) [Example 99, 3-[[6-[(2-fluoro-4-pyridyl)amino]-1,3-benzothiazol-2-yl]carbamoyl]bicyclo[2.2.1]hept-5-ene-2-carboxylic acid] was 1 to 5 µM; that for `O=C(Nc1nc2ccc(-c3ccc(N4CCCCC4)cc3)cc2s1)[C@@H]1C2C=CC(C2)[C@@H]1C(=O)O` (some centres unmarked) [Example 100] was under 1 µM.
